Assay [1] concerns Ca2+ uptake of rat heart mitochondria. The assay can be described thus: Ca2+ uptake assay using isolated rat heart mitochondria (atomic absorbance spectrometer). It counts as biochemical. Conditions: 100 μM CaCl2; read-out: IC50, inhibition of Ca2+ uptake of rat heart mitochondria. How it is done:
We then asked whether DS16570511 inhibits Ca^2+ uptake in isolated mitochondria from animal heart. An atomic absorbance spectrometer-based detection method was employed to analyze intramitochondrial Ca^2+ levels. We prepared freshly isolated mitochondria from pig heart, and the mitochondria were incubated with 100 μM CaCl2.
Figure 3 DS16570511 inhibits Ca^2+ uptake in isolated heart mitochondria. (a) Effect of RuR on Ca^2+ uptake of pig heart mitochondria. […] Data are mean with S.E.M. from three independent samples. (b) Inhibition rate of RuR or DS16570511 on Ca^2+ uptake of pig heart mitochondria. Inhibition 0 or 100% is defined as a value of Ca^2+-untreated mitochondria or Ca^2+-treated mitochondria, respectively. Data are mean with S.E.M. from three independent samples. (c) Inhibition rate of RuR or DS16570511 on Ca^2+ uptake of rat heart mitochondria. Data are mean with S.E.M./variation from three or two independent samples for DS16570511 or RuR, respectively.
Mitochondria were isolated by using the mitochondria isolation kit and then dissolved in the swelling buffer. The protein concentration of the mitochondrial solution was 5 mg/ml. […] The solution was then diluted by water, and Ca^2+ concentration of the solution was measured by atomic absorbance spectrometer (Hitachi High-Technologies Corporation, Z-2710, Tokyo, Japan).

In the next assay the target is T1, MICU1 (Homo sapiens, UniProt Q9BPX6).
T1 construct: expressed in transfected cells; host or cells: HEK293A cells, transient co-transfection with the mitochondria-targeted aequorin vector
T1 sequence (Q9BPX6 34-476): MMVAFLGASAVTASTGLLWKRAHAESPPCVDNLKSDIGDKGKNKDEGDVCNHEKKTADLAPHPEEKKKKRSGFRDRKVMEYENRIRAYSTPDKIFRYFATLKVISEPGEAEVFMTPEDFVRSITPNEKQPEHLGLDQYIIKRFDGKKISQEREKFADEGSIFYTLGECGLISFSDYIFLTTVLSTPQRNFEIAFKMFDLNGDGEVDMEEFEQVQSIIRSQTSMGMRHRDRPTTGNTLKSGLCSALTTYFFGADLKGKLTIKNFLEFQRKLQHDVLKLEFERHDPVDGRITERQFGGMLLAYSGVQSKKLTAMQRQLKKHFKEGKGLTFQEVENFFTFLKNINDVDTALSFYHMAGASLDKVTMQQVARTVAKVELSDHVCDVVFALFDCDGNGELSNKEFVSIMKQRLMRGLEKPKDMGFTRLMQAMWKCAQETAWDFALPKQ
As to the kind of experiment: MICU1-dependent mitochondrial Ca2+ influx in HEK293A cells overexpressing human MICU1. It counts as cell-based. The note with it: HEK293A cells overexpressing MICU1, serum-induced. The text has this: Next, to investigate the molecular component of the mitochondrial calcium uniporter, MCU-dependent and MICU-dependent Ca^2+ influx were examined. […] The MCU-dependent increment of Ca^2+ influx was blocked by the DS16570511 pretreatment (Figure 5b). We then investigated the effects of the inhibitor on the regulatory subunit MICU1. Previous studies have shown that MICU1 facilitates mitochondrial Ca^2+ uptake through the presence of a high Ca^2+ level.[11],[22]
Figure 5 DS16570511 inhibits mitochondrial Ca^2+ influx by MCU or MICU1. (a) Effect of overexpression of MCU or MICU1 on mitochondrial Ca^2+ influx in HEK293A cells. (b) Effect of DS16570511 on MCU-dependent mitochondrial Ca^2+ uptake in HEK293A cells. (c) Effect of DS16570511 on MICU1-dependent mitochondrial Ca^2+ uptake in HEK293A cells. […]
In order to evaluate mitochondrial Ca^2+ uptake activity by MCU or MICU1, HEK293A cells were transiently transfected with the mitochondria-targeted aequorin vector and pcDNA3.1 vector containing human Mcu (NCBI Reference Sequence: NM_138357.2) or Micu1 (NM_001195518.1). One day after the transfection, the luminescence levels were measured as described above. MCU- or MICU1-dependent activity was calculated by subtracting the luminescence level of cells transfected with empty vector from that of cells expressing MCU or MICU1, respectively.

For assay [2], the system named is mitochondrial Ca2+ levels in rat perfused heart. As to the kind of experiment: Mitochondrial Ca2+ overload in rat isolated perfused heart. The note with it: 10 min pretreatment. The protocol:
We investigated the effect of DS16570511 on mitochondrial Ca^2+ levels in a rat isolated perfused heart. In the normal condition of the perfusion assay, the Ca^2+ concentration of the perfusion buffer is 2.5 mM.[23] To induce mitochondrial Ca^2+ overload, Ca^2+ concentration in the perfusion buffer was increased from 2.5 mM to 5 mM or 7.5 mM.
Figure 6 DS16570511 inhibits mitochondrial Ca^2+ overload in isolated heart. Effect of DS16570511 on mitochondrial Ca^2+ levels in rat perfused heart. For induction of Ca^2+ overload in mitochondria ex vivo, Ca^2+ concentration was increased from 2.5 mM to 5 mM or 7.5 mM. The heart was treated with DS16570511 for 10 min before the high Ca^2+ treatment. Data are mean with S.E.M. from more than three independent samples.
The hearts were rapidly excised from 9-week-old male Wistar rats and perfused at 37 °C with Krebs-Ringer perfusion buffer (127.2 mM NaCl, 4.7 mM KCl, 2.5 mM CaCl2, 1.2 mM KH2PO4, 1.2 mM MgSO4, 25 mM NaHCO3 and 5.5 mM glucose (pH 7.4)) equilibrated with 95% O2/5% CO2. A balloon was inserted through the left atrium into the left ventricle. Heart rate and contractility were continuously recorded with a data acquisition system (PowerLab, ADInstruments, Bella Vista, NSW, Australia).

The values that follow come from article PMC5511861, “DS16570511 is a small-molecule inhibitor of the mitochondrial calcium uniporter” (Cell Death Discovery, 2017).

Regarding `Cc1onc(-c2c(Cl)cccc2Cl)c1CNc1cccc(C(=O)c2cn(CCCC(=O)O)c3ccccc23)c1` [DS16570511], the IC50 in assay [1] worked out at 25 µM. For the same compound, the “effect on MICU1-dependent activation of the uniporter” value at MICU1 is reported as “blocked by DS16570511 in a dose-dependent manner”. The “effect on mitochondrial Ca2+ level, normal buffer” value in assay [2] (2.5 mM Ca2+ buffer, 30 μM) is reported as “no significant effect”. For the same compound, in assay [2] (5.0 mM Ca2+ buffer), the “effect on mitochondrial Ca2+ increase induced by 5.0 mM Ca2+ buffer” value is “blocked”. The “effect on mitochondrial Ca2+ overload induced by 7.5 mM Ca2+ buffer” value in assay [2] (7.5 mM Ca2+ buffer) is reported as “dose-dependently inhibited”.
